This passage reports EC50 results from patent publication US12552826B2, “PRMT5 inhibitors” (Merck Sharp & Dohme LLC, priority 2018, dated 2026).

For this experiment, the target named is T1, PRMT5 (Homo sapiens, UniProt O14744).
T1 construct: endogenous in cells; host or cells: MCF-7
T1 sequence (O14744 whole entry): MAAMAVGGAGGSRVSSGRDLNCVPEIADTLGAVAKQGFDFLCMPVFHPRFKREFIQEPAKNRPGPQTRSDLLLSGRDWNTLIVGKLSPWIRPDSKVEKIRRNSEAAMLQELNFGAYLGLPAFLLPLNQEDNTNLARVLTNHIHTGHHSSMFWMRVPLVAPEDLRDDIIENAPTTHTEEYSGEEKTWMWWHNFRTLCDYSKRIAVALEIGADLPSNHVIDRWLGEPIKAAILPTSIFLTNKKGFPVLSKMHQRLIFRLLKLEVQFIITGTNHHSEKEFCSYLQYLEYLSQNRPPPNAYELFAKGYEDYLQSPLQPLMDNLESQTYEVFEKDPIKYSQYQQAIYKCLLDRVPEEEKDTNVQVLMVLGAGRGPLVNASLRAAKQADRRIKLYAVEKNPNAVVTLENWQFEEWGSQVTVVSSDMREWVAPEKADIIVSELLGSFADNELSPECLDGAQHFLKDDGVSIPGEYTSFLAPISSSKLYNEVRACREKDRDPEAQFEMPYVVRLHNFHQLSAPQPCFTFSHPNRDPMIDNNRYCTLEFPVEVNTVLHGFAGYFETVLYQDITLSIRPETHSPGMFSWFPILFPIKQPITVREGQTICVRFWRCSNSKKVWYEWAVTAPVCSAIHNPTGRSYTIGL
T1 sequence (Q9BQA1 whole entry partner): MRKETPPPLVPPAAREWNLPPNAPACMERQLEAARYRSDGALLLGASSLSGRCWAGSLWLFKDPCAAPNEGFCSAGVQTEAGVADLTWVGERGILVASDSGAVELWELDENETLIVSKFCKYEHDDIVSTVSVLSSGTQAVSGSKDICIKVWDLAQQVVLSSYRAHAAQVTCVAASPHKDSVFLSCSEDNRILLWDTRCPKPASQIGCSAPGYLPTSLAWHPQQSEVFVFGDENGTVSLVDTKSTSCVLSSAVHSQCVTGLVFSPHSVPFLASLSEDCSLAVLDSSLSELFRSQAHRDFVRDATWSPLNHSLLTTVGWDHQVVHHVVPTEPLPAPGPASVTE
The experiment is described as follows: PRMT5 Cell Target Engagement (TE) Assay. The class given is cell-based. Conditions: MCF-7 cells, 3 days treatment, nuclear SDMA by high content imaging. The text has this:
The PRMT5 TE assay is a biomarker assay for identifying compounds that inhibit symmetric dimethylation of arginine (SDMA) of PRMT5 substrates. The following substrates have been reported for PRMT5: Histone H2A and H4 R3, Histone H3 R2, Histone H3 R8, spliceosome Sm proteins, ribosomal protein RPS10, p53, FEN1, nucleoplasmin, nucleolin, EGFR and EBNA. The assay will focus on detecting symmetrically dimethylated nuclear proteins using high content imaging technology. Detection of the expression of symmetrically dimethylated nuclear proteins is through a mixture of primary rabbit monoclonal antibodies to SDMA (CST 13222), which in turn recognized by an Alexafluor 488 dye-conjugated anti-rabbit IgG secondary antibody. The IN Cell Analyzer 2200 or Opera-Phenix measures nuclear Alexafluor 488 fluorescent dye intensity that is directly related to the level of expression of symmetrically dimethylated nuclear proteins at the single cell level. Nuclear AF488 dye intensities are compared to the mean value for DMSO treated cells (MIN) to report percent of inhibition for each compound-treated well.
In this assay, the cell potency (EC50) of each compound was determined from a ten point (1:3 serial dilution; top compound concentration of 10000 nM) titration curve using the following outlined procedure. Each well of a BD falcon collagen coated black/clear bottom 384-well plate was seeded with 4000 MCF-7 cells in 30 μl media and allowed to attach for 5 hours. Media is ATCC-formulated Eagle's Minimum Essential Medium, Catalog No. 30-2003. The following components were added to the base medium: 0.01 mg/mL human recombinant insulin; fetal bovine serum to a final concentration of 10%. Additional 30 μl of media containing 2× compounds were added to each well. Cells were treated for 3 days in 37° C. CO2 incubator. On day 3, cells were fixed with Cytofix, permeabilized with 0.4% Triton-X-100/Cytofix, and washed with D-PBS without Ca/Mg. Cells were blocked with Licor Odessey blocking reagent for 1 hour at room temperature, followed by incubation with anti-SDMA (1:1000) antibody at 4° C. overnight. 1° antibody was removed, followed by three washings with DPBS without Ca/Mg and 0.05% Tween20. Hoechst (5 μg/mL), Cell Mask deep stain (1:2000) and Alexa488-conjugated goat anti-rabbit IgG (2 μg/mL) was added for 1 hour at room temperature. A final washing step (three washes) was performed before sealing plate for imaging on In Cell Analyzer 2200 or Opera-Phenix. Images from analyzer were uploaded to Columbus for image analysis. IC50 values were determined by 4 parameters robust fit of percent fluorescence units vs. (Log10) compound concentrations.
A word on the EC50: it is the concentration needed to bring the measured effect to its halfway point. A low value points to an effect from little substance. As for `Cc1ncnc2c1ccn2[C@@H]1O[C@H]([C@](C)(O)c2cc(C(F)F)c(F)c3c2CNCC3)[C@@](C)(O)[C@H]1O` [Example 91, (2R,3S,4R,5R)-2-((R)-1-(6-(difluoromethyl)-5-fluoro-1,2,3,4-tetrahydroisoquinolin-8-yl)-1-hydroxyethyl)-3-methyl-5-(4-methyl-7H-pyrrolo[2,3-d]pyrimidin-7-yl)tetrahydrofuran-3,4-diol], a half-maximal effect (EC50) was put at 0.54 nM.
On to `C[C@]1(O)[C@@H](O)[C@H](n2ccc3c(N)ncnc32)O[C@@H]1[C@@](C)(O)c1cccc2c1CNCC2` [Example 69, 7-[6-deoxy-3-C-methyl-5-C-(1,2,3,4-tetrahydroisoquinolin-8-yl)-beta-D-allofuranosyl]-7H-pyrrolo[2,3-d]pyrimidin-4-amine], for which the EC50 worked out at 507 nM.
For the molecule `C[C@@]1(O)[C@@H]([C@H](O)c2cccc(Cl)c2)O[C@@H](n2ccc3c(N)ncnc32)[C@@H]1O` [Example 16, 7-[(5R)-5-C-(3-chlorophenyl)-3-C-methyl-beta-D-ribofuranosyl]-7H-pyrrolo[2,3-d]pyrimidin-4-amine], a half-maximal effect (EC50) was put at 80 nM.
For the molecule `C=C(c1cc(F)cc(C(F)F)c1)[C@H]1O[C@@H](n2ccc3c(N)ncnc32)[C@H](O)[C@]1(C)O` [Example 82, (2R,3S,4R,5R)-5-(4-amino-7H-pyrrolo[2,3-d]pyrimidin-7-yl)-2-(1-(3-(difluoromethyl)-5-fluorophenyl)vinyl)-3-methyltetrahydrofuran-3,4-diol], the EC50 was found to be 280 nM.
The same measure for `C[C@]1(O)[C@@H](O)[C@H](n2ccc3c(N)ncnc32)O[C@@H]1[C@](C)(O)c1ccc(F)c(F)c1` [Example 3, (2R,3S,4R,5R)-5-(4-amino-7H-pyrrolo[2,3-d]pyrimidin-7-yl)-2-((R)-1-(3,4-difluorophenyl)-1-hydroxyethyl)-3-methyltetrahydrofuran-3,4-diol]: 145 nM.
As for `Cc1cccc([C@@H](O)[C@H]2O[C@@H](n3ccc4c(N)ncnc43)[C@H](O)[C@]2(C)O)c1` [Example 38, 7-[(5R)-3-C-methyl-5-C-(3-methylphenyl)-beta-D-ribofuranosyl]-7H-pyrrolo[2,3-d]pyrimidin-4-amine], the figure is 166 nM; as for `C[C@@]1(O)[C@@H]([C@@H](O)c2ccccc2)O[C@@H](n2ccc3c(N)ncnc32)[C@@H]1O` [Example 12, 7-[(5S)-3-C-methyl-5-C-phenyl-beta-D-ribofuranosyl]-7H-pyrrolo[2,3-d]pyrimidin-4-amine], more than 10000 nM; as for `C[C@@]1(O)[C@@H]([C@H](O)c2cc(F)cc(C(F)(F)F)c2)O[C@@H](n2ccc3c(N)ncnc32)[C@@H]1O` [Example 58, 7-{(5R)-5-C-[3-fluoro-5-(trifluoromethyl)phenyl]-3-C-methyl-beta-D-ribofuranosyl}-7H-pyrrolo[2,3-d]pyrimidin-4-amine], 301 nM.
For the molecule `C[C@@]1(O)[C@@H]([C@@H](O)c2cccc(C(F)F)c2)O[C@@H](n2ccc3c(N)ncnc32)[C@@H]1O` [Example 57, 7-{(5S)-5-C-[3-(difluoromethyl)phenyl]-3-C-methyl-beta-D-ribofuranosyl}-7H-pyrrolo[2,3-d]pyrimidin-4-amine], the EC50 is more than 10000 nM.
As for `C[C@]1(O)[C@@H](O)[C@H](n2ccc3c(N)ncnc32)O[C@@H]1[C@](C)(O)c1cccc2c1CNCC2` [Example 63, 7-[6-deoxy-3-C-methyl-5-C-(1,2,3,4-tetrahydroisoquinolin-8-yl)-beta-D-ribo-hexofuranosyl]-7H-pyrrolo[2,3-d]pyrimidin-4-amine], the figure is 182 nM; as for `C[C@@]1(O)[C@@H]([C@@H](O)c2cc(F)cc(C(F)F)c2)O[C@@H](n2ccc3c(N)ncnc32)[C@@H]1O` [Example 5, (2R,3S,4R,5R)-5-(4-amino-7H-pyrrolo[2,3-d]pyrimidin-7-yl)-2-((S)-(3-(difluoromethyl)-5-fluorophenyl)(hydroxy)methyl)-3-methyltetrahydrofuran-3,4-diol], 5060 nM.
The same measure for `C[C@@]1(O)[C@@H]([C@H](O)c2cccc(C(F)(F)F)c2)O[C@@H](n2ccc3c(N)ncnc32)[C@@H]1O` [Example 54, 7-{(5R)-3-C-methyl-5-C-[3-(trifluoromethyl)phenyl]-beta-D-ribofuranosyl}-7H-pyrrolo[2,3-d]pyrimidin-4-amine]: 391 nM; for `C[C@@]1(O)[C@@H]([C@H](O)c2cccc(C(F)F)c2)O[C@@H](n2ccc3c(N)ncnc32)[C@@H]1O` [Example 56, 7-{(5R)-5-C-[3-(difluoromethyl)phenyl]-3-C-methyl-beta-D-ribofuranosyl}-7H-pyrrolo[2,3-d]pyrimidin-4-amine]: 32 nM; for `C[C@@]1(O)[C@@H]([C@H](O)c2cc(F)cc(C(F)F)c2)O[C@@H](n2ccc3c(N)ncnc32)[C@@H]1O` [Example 4, (2R,3S,4R,5R)-5-(4-amino-7H-pyrrolo[2,3-d]pyrimidin-7-yl)-2-((R)-(3-(difluoromethyl)-5-fluorophenyl)(hydroxy)methyl)-3-methyltetrahydrofuran-3,4-diol]: 16 nM.
As for `C[C@@]1(O)[C@@H]([C@H](O)c2ccc(F)cc2Cl)O[C@@H](n2ccc3c(N)ncnc32)[C@@H]1O` [Example 48, 7-[(5R)-5-C-(2-chloro-4-fluorophenyl)-3-C-methyl-beta-D-ribofuranosyl]-7H-pyrrolo[2,3-d]pyrimidin-4-amine], the figure is more than 10000 nM; as for `C[C@]1(O)[C@@H](O)[C@H](n2ccc3c(N)ncnc32)O[C@@H]1[C@](C)(O)c1cc(C(F)F)c(F)c2c1CNCC2` [Example 10, (2R,3S,4R,5R)-5-(4-amino-7H-pyrrolo[2,3-d]pyrimidin-7-yl)-2-((R)-1-(6-(difluoromethyl)-5-fluoro-1,2,3,4-tetrahydroisoquinolin-8-yl)-1-hydroxyethyl)-3-methyltetrahydrofuran-3,4-diol], 5.6 nM.
`C[C@@]1(O)[C@@H]([C@H](O)c2cc(F)cc(Cl)c2)O[C@@H](n2ccc3c(N)ncnc32)[C@@H]1O` [Example 26, 7-[(5R)-5-C-(3-chloro-5-fluorophenyl)-3-C-methyl-beta-D-ribofuranosyl]-7H-pyrrolo[2,3-d]pyrimidin-4-amine]: it took 34 nM to reach a half-maximal effect (EC50).
`C[C@@]1(O)[C@@H]([C@@H](O)c2cccc(C(F)(F)F)c2)O[C@@H](n2ccc3c(N)ncnc32)[C@@H]1O` [Example 55, 7-{(5S)-3-C-methyl-5-C-[3-(trifluoromethyl)phenyl]-beta-D-ribofuranosyl}-7H-pyrrolo[2,3-d]pyrimidin-4-amine] showed an EC50 of more than 10000 nM.
As for `COc1cccc([C@@H](O)[C@H]2O[C@@H](n3ccc4c(N)ncnc43)[C@H](O)[C@]2(C)O)c1` [Example 36, 7-[(5R)-5-C-(3-methoxyphenyl)-3-C-methyl-beta-D-ribofuranosyl]-7H-pyrrolo[2,3-d]pyrimidin-4-amine], the figure is 997 nM; as for `C[C@@]1(O)[C@@H]([C@H](O)c2cc(F)c(F)c(C(F)F)c2)O[C@@H](n2ccc3c(N)ncnc32)[C@@H]1O` [Example 64, 7-{(5R)-5-C-[3-(difluoromethyl)-4,5-difluorophenyl]-3-C-methyl-beta-D-ribofuranosyl}-7H-pyrrolo[2,3-d]pyrimidin-4-amine], 219 nM; as for `C[C@@]1(O)[C@@H]([C@H](O)c2cc(F)c(F)c(F)c2)O[C@@H](n2ccc3c(N)ncnc32)[C@@H]1O` [Example 34, 7-[(5R)-3-C-methyl-5-C-(3,4,5-trifluorophenyl)-beta-D-ribofuranosyl]-7H-pyrrolo[2,3-d]pyrimidin-4-amine], 227 nM.
The molecule `C[C@@]1(O)[C@@H]([C@@H](O)c2ccc(F)c(C(F)F)c2F)O[C@@H](n2ccc3c(N)ncnc32)[C@@H]1O` [Example 68, 7-{(5S)-5-C-[3-(difluoromethyl)-2,4-difluorophenyl]-3-C-methyl-beta-D-ribofuranosyl}-7H-pyrrolo[2,3-d]pyrimidin-4-amine] yielded an EC50 of more than 10000 nM.
The same measure for `C[C@@]1(O)[C@@H]([C@H](O)c2cccc(F)c2F)O[C@@H](n2ccc3c(N)ncnc32)[C@@H]1O` [Example 44, 7-[(5R)-5-C-(2,3-difluorophenyl)-3-C-methyl-beta-D-ribofuranosyl]-7H-pyrrolo[2,3-d]pyrimidin-4-amine]: 1060 nM; for `C[C@@]1(O)[C@@H]([C@@H](O)c2cccc(Cl)c2F)O[C@@H](n2ccc3c(N)ncnc32)[C@@H]1O` [Example 47, 7-[(5S)-5-C-(3-chloro-2-fluorophenyl)-3-C-methyl-beta-D-ribofuranosyl]-7H-pyrrolo[2,3-d]pyrimidin-4-amine]: more than 10000 nM.
